Target: T1, CPT-1a (carnitine palmitoyltransferase-1) (Mus musculus, UniProt P97742)
T1 sequence (P97742 2-773): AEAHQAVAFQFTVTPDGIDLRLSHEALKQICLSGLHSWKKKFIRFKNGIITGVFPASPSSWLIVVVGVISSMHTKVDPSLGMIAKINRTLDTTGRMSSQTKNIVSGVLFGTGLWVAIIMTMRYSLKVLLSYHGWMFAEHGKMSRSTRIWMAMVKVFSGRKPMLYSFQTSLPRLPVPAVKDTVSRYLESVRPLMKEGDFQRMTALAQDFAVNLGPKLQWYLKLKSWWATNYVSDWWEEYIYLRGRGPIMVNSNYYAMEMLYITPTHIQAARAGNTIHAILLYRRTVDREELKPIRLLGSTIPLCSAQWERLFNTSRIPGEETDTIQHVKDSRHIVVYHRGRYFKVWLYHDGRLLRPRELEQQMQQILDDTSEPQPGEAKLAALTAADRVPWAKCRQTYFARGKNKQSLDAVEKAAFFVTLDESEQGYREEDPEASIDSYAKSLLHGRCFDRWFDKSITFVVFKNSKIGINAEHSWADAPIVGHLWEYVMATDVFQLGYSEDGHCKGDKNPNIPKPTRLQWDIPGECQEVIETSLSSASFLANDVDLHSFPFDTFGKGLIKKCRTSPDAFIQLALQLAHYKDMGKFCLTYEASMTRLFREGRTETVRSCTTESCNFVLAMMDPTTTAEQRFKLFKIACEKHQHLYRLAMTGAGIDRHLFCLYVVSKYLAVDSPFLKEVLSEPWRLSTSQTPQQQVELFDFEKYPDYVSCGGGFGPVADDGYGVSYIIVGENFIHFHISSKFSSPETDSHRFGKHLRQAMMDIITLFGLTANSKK
Assay type: biochemical

palmitoyl-CoA-driven respiration in permeabilized mouse BMDMs pretreated with et: < 3 µM
SMILES: CCOC(=O)[C@@]1(CCCCCCOc2ccc(Cl)cc2)CO1 [Eto, etomoxir]

Reference: PMC6125190 (Cell metabolism, 2018)
